Measurements: ChEMBL document CHEMBL4513145, “CO-ADD screening of Biotechnology Research Centre (C.R.B.t) (Algeria) compounds”
Values after ≈ are worked out from the molar mass of the structure shown.

Legend:
HEK293 = assay: cells; assay type: functional; settings: Homo sapiens, ATCC CRL1573, HEK293; ASSAY_TEST Inhibition of Cell Viability; detection method Resazurin; Fluorescence (ex560/em590); MEDIA DMEM with 10% FBS; plate type 384well; TC; CORNING #3712; time 18 hr
Staphylococcus aureus = assay: microbe, parasite or virus in culture; settings: ATCC 43300, 18 h, ASSAY_TEST Inhibition of Bacterial Growth, detection method Absorption (OD600), MEDIA CAMHB, plate type 384well, NBS, CORNING #3640
Description: Antibacterial activity against Staphylococcus aureus MRSA ATCC 43300 (CO-ADD:GP_020); MIC in CAMBH media, using NBS plates, by OD(600)

Candida albicans = assay: microbe, parasite or virus in culture; settings: ATCC 90028, ASSAY_TEST Inhibition of Fungal Growth, detection method Absorption (OD530), plate type 384well, NBS, CORNING #3640
Description: Antifungal activity against Candida albicans ATCC 90028 (CO-ADD:FG_001); MIC in YNB media using NBS plates, by OD630

Klebsiella pneumoniae = assay: microbe, parasite or virus in culture; settings: ATCC 700603, 18 h, ASSAY_TEST Inhibition of Bacterial Growth, detection method Absorption (OD600), MEDIA CAMHB, plate type 384well, NBS, CORNING #3640
Description: Antibacterial activity against Klebsiella pneumoniae MDR ATCC 70063 (CO-ADD:GN_003); MIC in CAMBH media using NBS plates, by OD(600)

Acinetobacter baumannii = assay: microbe, parasite or virus in culture; settings: ATCC 19606, 18 h, ASSAY_TEST Inhibition of Bacterial Growth, detection method Absorption (OD600), MEDIA CAMHB, plate type 384well, NBS, CORNING #3640
Description: Antibacterial activity against Acinetobacter baumannii ATCC 19606 (CO-ADD:GN_034); MIC in CAMBH media using NBS plates, by OD600

Pseudomonas aeruginosa = assay: microbe, parasite or virus in culture; settings: ATCC 27853, 18 h, ASSAY_TEST Inhibition of Bacterial Growth, detection method Absorption (OD600), MEDIA CAMHB, plate type 384well, NBS, CORNING #3640
Description: Antibacterial activity against Pseudomonas aeruginosa ATCC 27853 (CO-ADD:GN_042); MIC in CAMBH media using NBS plates, by OD(600)

Escherichia coli = assay: microbe, parasite or virus in culture; settings: ATCC 25922, 18 h, ASSAY_TEST Inhibition of Bacterial Growth, detection method Absorption (OD600), MEDIA CAMHB, plate type 384well, NBS, CORNING #3640
Description: Antibacterial activity against Escherichia coli ATCC 25922 (CO-ADD:GN_001); MIC in CAMBH media using NBS plates, by OD(600)

Description for Cryptococcus neoformans: Antifungal activity against Cryptococcus neoformans H99 ATCC 208821 (CO-ADD:FG_002); MIC in YNB media using NBS plates, by Resazurin OD(600-570)

MIC (Staphylococcus aureus) | MIC (Candida albicans) | MIC (Klebsiella pneumoniae) | MIC (Acinetobacter baumannii) | MIC (Pseudomonas aeruginosa) | MIC (Cryptococcus neoformans) | MIC (Escherichia coli) | SMILES | CC50 (HEK293)
> 32 µg/mL | > 32 µg/mL | > 32 µg/mL | > 32 µg/mL | > 32 µg/mL | > 32 µg/mL | > 32 µg/mL | O=C(OCc1ccccc1)N1CC(Cc2ccccc2)C(O)O1 (stereo not given) | > 32 µg/mL
32 µg/mL (≈ 83 µM) | > 32 µg/mL | > 32 µg/mL | > 32 µg/mL | > 32 µg/mL | > 32 µg/mL | > 32 µg/mL | CC1CN(S(=O)(=O)c2ccc([N+](=O)[O-])cc2)N(C(=O)OC(C)(C)C)C1=O (stereo not given) | 6.8 µg/mL (≈ 17.6 µM)
> 32 µg/mL | > 32 µg/mL | > 32 µg/mL | > 32 µg/mL | > 32 µg/mL | > 32 µg/mL | > 32 µg/mL | CCCCCCCC1CN(C(=O)OCc2ccccc2)OC1O (stereo not given) | > 32 µg/mL
> 32 µg/mL | > 32 µg/mL | > 32 µg/mL | > 32 µg/mL | > 32 µg/mL | 32 µg/mL (≈ 135 µM) | > 32 µg/mL | CC1CN(C(=O)OCc2ccccc2)OC1O (stereo not given) | > 32 µg/mL
> 32 µg/mL | > 32 µg/mL | > 32 µg/mL | > 32 µg/mL | > 32 µg/mL | > 32 µg/mL | > 32 µg/mL | CC1CN(S(=O)(=O)c2ccc([N+](=O)[O-])cc2)N(C(=O)OC(C)(C)C)C1O (stereo not given) | 6.19 µg/mL (≈ 16 µM)
